Columns and labels:
EPHA5 = EPHA5 (Homo sapiens, UniProt P54756); experiment: KINOMEscan: EPHA5; format: binding; conditions: 1000 nM, read-out: Percent Control
CDC2L5 = CDC2L5 (Homo sapiens, UniProt Q14004); experiment: KINOMEscan: CDC2L5; format: binding; conditions: 1000 nM, read-out: Percent Control
ZAK = ZAK (Homo sapiens, UniProt Q9NYL2); experiment: KINOMEscan: ZAK; format: binding; conditions: 100 nM, read-out: Percent Control
ICK = ICK (Homo sapiens, UniProt Q9UPZ9); experiment: KINOMEscan: ICK; format: binding; conditions: 1000 nM, read-out: Percent Control
[1] = target: T1, CDK9 in complex with Cyclin K (Homo sapiens, UniProt P50750); experiment: HotSpot radiometric kinase assay; format: biochemical; conditions: 10-dose series from 0.5 nM to 10 µM; vs dinaciclib, KB-0742, atuveciclib
T1 construct: host or cells: HEK293
Protocol: We next compared VIP152 to other CDK inhibitors currently in development. […] The compounds were tested in a 10-dose series from 0.5 nM to 10 µM against CDK9 in complex with Cyclin T1/T2/K, CDK7/Cyclin H, and GSK3α/β. […]
HotSpot Kinase Assay Protocol
Compounds tested via HotSpot Kinase Assay were sent to ReactionBio for the experiment. The […]
Kinase substrate was added to reaction buffer (20 mM Hepes (pH 7.5), 10 mM MgCl2, 1 mM EGTA, 0.01% Brij35, 0.02 mg/ml BSA, 0.1 mM Na3VO4, 2 mM DTT, 1% DMSO). Cofactors and kinases were gently added to the reaction buffer. Compounds to be tested were dissolved in 100% DMSO and were delivered into the kinase reaction mixture by Acoustic technology (Echo550; nanoliter range) and incubated for 20 min at room temperature. 32P-ATP was delivered into the reaction mixture and the reaction was allowed to proceed for 2 hours. Kinase activity was detected by P81 filter-binding method.

RET(V804M) = RET(V804M) (Homo sapiens, UniProt P07949, V804M); experiment: KINOMEscan: RET(V804M); format: binding; conditions: 100 nM, read-out: Percent Control
RIPK1 = RIPK1 (Homo sapiens, UniProt Q13546); experiment: KINOMEscan: RIPK1; format: binding; conditions: 100 nM, read-out: Percent Control
WEE2 = WEE2 (Homo sapiens, UniProt P0C1S8); experiment: KINOMEscan: WEE2; format: binding; conditions: 100 nM, read-out: Percent Control
TLK2 = TLK2 (Homo sapiens, UniProt Q86UE8); experiment: KINOMEscan: TLK2; format: binding; conditions: 100 nM, read-out: Percent Control
RIPK5 = RIPK5 (Homo sapiens, UniProt Q6XUX3); experiment: KINOMEscan: RIPK5; format: binding; conditions: 100 nM, read-out: Percent Control
GAK = GAK (Homo sapiens, UniProt O14976); experiment: KINOMEscan: GAK; format: binding; conditions: 1000 nM, read-out: Percent Control
SRPK2 = SRPK2 (Homo sapiens, UniProt P78362); experiment: KINOMEscan: SRPK2; format: binding; conditions: 100 nM, read-out: Percent Control
Neuropeptide Y Y1 = Neuropeptide Y Y1 (Homo sapiens, UniProt P25929); experiment: Eurofins Diversity Panel; format: binding; conditions: hum, Conc. 10 μM
OSU-CLL [2] = experiment: MTS proliferation assay; format: cell-based; conditions: Homo sapiens, 24, 48, and 72 h
CSK = CSK (Homo sapiens, UniProt P41240); experiment: KINOMEscan: CSK; format: binding; conditions: 1000 nM, read-out: Percent Control
KIT(V559D,T670I) = KIT(V559D,T670I) (Homo sapiens, UniProt P10721, T670I/V559D); experiment: KINOMEscan: KIT(V559D,T670I); format: binding; conditions: 1000 nM, read-out: Percent Control
CAMKK1 = CAMKK1 (Homo sapiens, UniProt Q8N5S9); experiment: KINOMEscan: CAMKK1; format: binding; conditions: 1000 nM, read-out: Percent Control
CDK4-cyclinD3 = CDK4-cyclinD3 (Homo sapiens, UniProt P11802); experiment: KINOMEscan: CDK4-cyclinD3; format: binding; conditions: 1000 nM, read-out: Percent Control
EGFR(G719S) = EGFR(G719S) (Homo sapiens, UniProt P00533, G719S); experiment: KINOMEscan: EGFR(G719S); format: binding; conditions: 1000 nM, read-out: Percent Control
ERK1 = ERK1 (Homo sapiens, UniProt P27361); experiment: KINOMEscan: ERK1; format: binding; conditions: 1000 nM, read-out: Percent Control
OSU-CLL [3] = experiment: Annexin V/propidium iodide flow cytometry; conditions: compared with HG-3 and MEC-1; 24, 48, 72 h
Protocol: HG-3, MEC-1, and OSU-CLL were cultured for 24, 48, and 72 h with VIP152 or DMSO.
MTS Proliferation Studies, Annexin V/PI Flow Cytometry
For apoptosis assays of primary CLL, cells were acquired under an institutional reviewer board-approved protocol with informed consent. Leukemia cells were isolated from whole blood utilizing RosetteSep Human B Cell Enrichment Cocktail ([sequence]). Stromal
coculture was done by plating HS-5 stromal cells (50% confluent) in a 6-well plate 24 hours before the addition of CLL cells. CLL cells were added to the plate with VIP152 and allowed to incubate for four hours upon which the cells were centrifuged and replated using 50% HS-5 conditioned media. Apoptosis was measured utilizing FITC-conjugated Annexin-V and Propidium Iodide (Leinco) on a Beckmann-Coulter Cytoflex. Primary samples were excluded from analysis if the viability of the DMSO group was <40% as defined by Annexin-V/Propdium Iodide-/- cells. Single-color controls were utilized for compensation using pooled primary cell sample heated for

Chain of CDK4-cyclinD3 (P11802 whole entry): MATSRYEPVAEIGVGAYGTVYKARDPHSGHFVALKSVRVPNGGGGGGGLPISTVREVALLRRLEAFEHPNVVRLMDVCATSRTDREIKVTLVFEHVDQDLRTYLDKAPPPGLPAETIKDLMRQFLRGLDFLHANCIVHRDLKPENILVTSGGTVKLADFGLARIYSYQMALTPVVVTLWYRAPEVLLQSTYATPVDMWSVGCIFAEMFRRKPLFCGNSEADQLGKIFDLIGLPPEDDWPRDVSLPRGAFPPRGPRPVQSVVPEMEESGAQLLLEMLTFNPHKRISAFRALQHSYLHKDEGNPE
Chain of CDK4-cyclinD3 (P30281 whole entry partner): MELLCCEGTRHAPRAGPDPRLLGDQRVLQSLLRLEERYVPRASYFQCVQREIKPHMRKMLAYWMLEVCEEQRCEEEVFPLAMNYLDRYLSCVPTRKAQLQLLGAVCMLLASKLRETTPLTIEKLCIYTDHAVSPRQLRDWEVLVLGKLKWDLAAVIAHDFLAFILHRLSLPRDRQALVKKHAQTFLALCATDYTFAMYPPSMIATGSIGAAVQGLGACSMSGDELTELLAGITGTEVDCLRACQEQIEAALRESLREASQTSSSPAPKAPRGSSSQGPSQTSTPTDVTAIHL
Chain of RIPK1 (Q13546 whole entry): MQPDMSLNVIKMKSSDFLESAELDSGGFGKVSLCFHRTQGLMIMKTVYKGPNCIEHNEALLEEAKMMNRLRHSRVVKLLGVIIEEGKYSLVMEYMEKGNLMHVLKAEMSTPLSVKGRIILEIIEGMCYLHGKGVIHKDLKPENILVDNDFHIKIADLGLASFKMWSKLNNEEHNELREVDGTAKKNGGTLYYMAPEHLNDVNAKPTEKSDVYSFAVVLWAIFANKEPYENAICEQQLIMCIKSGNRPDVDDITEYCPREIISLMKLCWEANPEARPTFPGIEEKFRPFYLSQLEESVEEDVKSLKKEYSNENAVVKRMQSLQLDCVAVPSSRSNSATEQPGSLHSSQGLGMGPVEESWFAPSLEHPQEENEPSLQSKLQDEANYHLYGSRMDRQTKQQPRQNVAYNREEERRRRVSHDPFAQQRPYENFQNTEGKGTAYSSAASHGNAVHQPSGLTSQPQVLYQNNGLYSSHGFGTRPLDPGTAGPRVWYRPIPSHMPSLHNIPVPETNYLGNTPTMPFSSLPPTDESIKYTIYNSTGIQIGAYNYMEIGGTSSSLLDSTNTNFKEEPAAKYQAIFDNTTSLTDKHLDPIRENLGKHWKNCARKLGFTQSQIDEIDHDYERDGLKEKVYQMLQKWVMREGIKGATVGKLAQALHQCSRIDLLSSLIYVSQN
Chain of Neuropeptide Y Y1 (P25929 whole entry): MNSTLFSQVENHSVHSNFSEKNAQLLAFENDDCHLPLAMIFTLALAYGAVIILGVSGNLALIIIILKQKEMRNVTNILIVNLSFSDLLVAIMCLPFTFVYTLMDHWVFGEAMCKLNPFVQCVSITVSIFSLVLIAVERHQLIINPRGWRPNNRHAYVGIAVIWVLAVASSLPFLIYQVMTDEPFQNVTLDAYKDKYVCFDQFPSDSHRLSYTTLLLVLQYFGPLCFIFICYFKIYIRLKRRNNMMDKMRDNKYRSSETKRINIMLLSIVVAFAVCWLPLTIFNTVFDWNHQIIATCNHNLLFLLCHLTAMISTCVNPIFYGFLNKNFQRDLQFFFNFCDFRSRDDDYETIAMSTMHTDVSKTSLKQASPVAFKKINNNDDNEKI
T1 sequence (P50750 whole entry): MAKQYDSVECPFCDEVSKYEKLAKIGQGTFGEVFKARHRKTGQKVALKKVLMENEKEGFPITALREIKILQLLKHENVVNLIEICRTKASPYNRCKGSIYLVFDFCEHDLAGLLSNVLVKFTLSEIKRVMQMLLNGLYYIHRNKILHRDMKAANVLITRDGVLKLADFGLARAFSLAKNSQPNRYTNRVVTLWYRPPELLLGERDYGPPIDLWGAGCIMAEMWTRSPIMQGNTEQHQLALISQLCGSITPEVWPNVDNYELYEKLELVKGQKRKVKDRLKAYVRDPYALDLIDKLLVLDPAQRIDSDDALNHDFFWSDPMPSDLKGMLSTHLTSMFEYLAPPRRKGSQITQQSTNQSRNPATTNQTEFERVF
T1 sequence (O75909 whole entry partner): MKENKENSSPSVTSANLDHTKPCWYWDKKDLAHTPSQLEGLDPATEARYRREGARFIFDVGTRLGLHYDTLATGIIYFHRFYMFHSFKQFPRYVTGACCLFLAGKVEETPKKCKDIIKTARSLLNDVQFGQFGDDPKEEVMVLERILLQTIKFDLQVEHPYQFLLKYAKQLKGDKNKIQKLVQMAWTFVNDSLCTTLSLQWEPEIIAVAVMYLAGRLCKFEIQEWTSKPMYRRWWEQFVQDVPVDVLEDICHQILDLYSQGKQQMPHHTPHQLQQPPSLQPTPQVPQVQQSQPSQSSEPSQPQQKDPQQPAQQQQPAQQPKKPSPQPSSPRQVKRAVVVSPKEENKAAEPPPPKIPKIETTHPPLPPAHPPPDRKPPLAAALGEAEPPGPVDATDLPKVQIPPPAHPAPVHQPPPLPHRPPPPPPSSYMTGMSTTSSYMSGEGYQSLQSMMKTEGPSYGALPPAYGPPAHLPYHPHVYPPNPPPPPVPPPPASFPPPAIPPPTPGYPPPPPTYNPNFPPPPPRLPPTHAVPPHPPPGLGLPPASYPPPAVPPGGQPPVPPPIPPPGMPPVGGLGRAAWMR
Chain of RET(V804M) (P07949 29-1114 V804M): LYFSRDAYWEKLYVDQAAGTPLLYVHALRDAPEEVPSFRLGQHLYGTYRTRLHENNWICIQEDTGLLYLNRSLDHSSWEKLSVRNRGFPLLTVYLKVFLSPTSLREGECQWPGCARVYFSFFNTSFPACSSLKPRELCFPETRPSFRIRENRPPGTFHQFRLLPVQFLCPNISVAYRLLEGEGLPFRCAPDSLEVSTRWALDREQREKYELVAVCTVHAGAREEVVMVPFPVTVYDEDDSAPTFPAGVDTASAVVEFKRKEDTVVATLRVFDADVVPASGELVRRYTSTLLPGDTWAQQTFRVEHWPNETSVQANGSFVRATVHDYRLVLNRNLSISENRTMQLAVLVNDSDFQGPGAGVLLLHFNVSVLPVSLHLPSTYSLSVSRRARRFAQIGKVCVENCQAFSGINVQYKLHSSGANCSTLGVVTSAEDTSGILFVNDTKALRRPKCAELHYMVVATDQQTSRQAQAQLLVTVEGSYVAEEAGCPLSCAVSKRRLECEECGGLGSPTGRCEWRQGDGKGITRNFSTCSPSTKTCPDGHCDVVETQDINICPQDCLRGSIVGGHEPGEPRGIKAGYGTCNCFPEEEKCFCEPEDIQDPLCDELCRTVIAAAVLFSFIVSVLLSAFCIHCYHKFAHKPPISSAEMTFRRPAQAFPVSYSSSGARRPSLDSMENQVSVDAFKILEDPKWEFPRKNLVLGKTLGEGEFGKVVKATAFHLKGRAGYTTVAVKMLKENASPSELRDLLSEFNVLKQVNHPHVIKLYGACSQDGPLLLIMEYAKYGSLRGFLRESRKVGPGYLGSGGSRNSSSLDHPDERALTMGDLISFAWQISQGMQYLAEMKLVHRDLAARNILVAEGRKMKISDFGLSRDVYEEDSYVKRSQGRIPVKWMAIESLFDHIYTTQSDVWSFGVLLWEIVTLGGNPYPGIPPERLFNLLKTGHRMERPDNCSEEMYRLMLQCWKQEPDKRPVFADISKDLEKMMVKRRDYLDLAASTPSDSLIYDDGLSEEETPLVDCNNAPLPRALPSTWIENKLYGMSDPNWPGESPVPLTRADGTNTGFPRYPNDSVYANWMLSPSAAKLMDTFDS
Chain of EGFR(G719S) (P00533 25-1210 G719S): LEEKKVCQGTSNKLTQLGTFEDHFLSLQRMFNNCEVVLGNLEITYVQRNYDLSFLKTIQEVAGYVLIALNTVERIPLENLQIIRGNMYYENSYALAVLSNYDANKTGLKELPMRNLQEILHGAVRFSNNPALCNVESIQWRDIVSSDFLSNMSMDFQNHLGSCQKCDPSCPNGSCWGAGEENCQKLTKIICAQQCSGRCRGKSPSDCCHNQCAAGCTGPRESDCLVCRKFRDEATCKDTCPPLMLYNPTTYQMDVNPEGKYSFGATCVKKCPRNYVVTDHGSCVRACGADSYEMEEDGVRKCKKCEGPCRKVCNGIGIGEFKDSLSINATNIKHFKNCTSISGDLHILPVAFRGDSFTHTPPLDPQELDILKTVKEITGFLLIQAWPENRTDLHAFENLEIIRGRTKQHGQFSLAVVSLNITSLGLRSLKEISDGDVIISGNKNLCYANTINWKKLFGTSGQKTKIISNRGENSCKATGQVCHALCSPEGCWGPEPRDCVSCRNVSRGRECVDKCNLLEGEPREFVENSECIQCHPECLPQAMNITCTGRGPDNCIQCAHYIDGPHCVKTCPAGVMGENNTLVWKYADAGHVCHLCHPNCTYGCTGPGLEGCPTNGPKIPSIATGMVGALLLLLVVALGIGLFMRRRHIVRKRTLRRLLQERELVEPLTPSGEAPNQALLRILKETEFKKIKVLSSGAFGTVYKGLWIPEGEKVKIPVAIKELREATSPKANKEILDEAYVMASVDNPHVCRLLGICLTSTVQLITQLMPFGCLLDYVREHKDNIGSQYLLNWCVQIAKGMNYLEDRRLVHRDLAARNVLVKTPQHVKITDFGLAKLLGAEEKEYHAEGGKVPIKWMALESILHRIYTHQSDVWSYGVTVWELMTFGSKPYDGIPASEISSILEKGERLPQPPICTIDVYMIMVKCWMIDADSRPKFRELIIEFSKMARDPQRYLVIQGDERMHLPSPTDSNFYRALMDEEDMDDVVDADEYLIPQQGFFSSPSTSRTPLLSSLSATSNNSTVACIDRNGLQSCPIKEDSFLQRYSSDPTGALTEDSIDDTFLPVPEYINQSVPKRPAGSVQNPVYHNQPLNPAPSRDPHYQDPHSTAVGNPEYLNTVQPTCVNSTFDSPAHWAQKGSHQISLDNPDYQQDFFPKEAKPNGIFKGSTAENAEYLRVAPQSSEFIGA

Compound: COc1cc(F)ccc1-c1cc(Nc2cc(CS(C)(=N)=O)ccn2)ncc1F (stereo not drawn) [VIP152]
- remaining binding at 1 µM (EPHA5): 88%
- remaining binding at 1 µM (CDC2L5): 13%
- remaining binding at 0.1 µM (ZAK): 100%
- remaining binding at 1 µM (ICK): 9%
- potency versus the other inhibitors tested [1]: higher potency
- remaining binding at 0.1 µM (RET(V804M)): 100%
- remaining binding at 0.1 µM (RIPK1): 100%
- remaining binding at 0.1 µM (WEE2): 100%
- remaining binding at 0.1 µM (TLK2): 100%
- remaining binding at 0.1 µM (RIPK5): 83%
- remaining binding at 1 µM (GAK): 82%
- remaining binding at 0.1 µM (SRPK2): 100%
- inhibition at 10 µM (Neuropeptide Y Y1): -3%
- IC50 (OSU-CLL [2]): ~100 nM
- remaining binding at 1 µM (CSK): 92%
- remaining binding at 1 µM (KIT(V559D,T670I)): 64%
- remaining binding at 1 µM (CAMKK1): 13%
- remaining binding at 1 µM (CDK4-cyclinD3): 14%
- remaining binding at 1 µM (EGFR(G719S)): 86%
- remaining binding at 1 µM (ERK1): 82%
- sensitivity to induction of apoptosis (OSU-CLL [3]): highest sensitivity to induction of apoptosis
